Measured values taken from patent US5686486A, “4-hydroxy-benzopyran-2-ones and 4-hydroxy-cycloalkyl[b]pyran-2-ones useful to treat retroviral infections” (priority 1995, dated 1997).
Where “and” joins values, the source holds several entries; their conditions need not be identical. Equal values may be shown once.

Tests used:
HIV-1 protease [1] = molecular target: T1, HIV-1 protease (Human immunodeficiency virus type 1 group M subtype B, UniProt P04585); experiment: biochemical; conditions: read-out: HIV-1 FITC KI
Summary of the method: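 Ki from two-fold serial inhibitor dilutions (24–48 concentrations) with 40 nM HIV-1 protease stock and 200 μM substrate stock, 90 min at room temperature; stopped with avidin beads. Reference inhibitor run in parallel; Ki by nonlinear least-squares fit.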

HIV-1IIIB = experiment: inhibition of retroviral replication in HIV-1IIIB infected human T-cell lines (MT4 and H9); type: cell-based; conditions: e.g.
Experimental: Several compounds of the present invention, such as N-[3-[cyclopropyl(5,6,7,8,9,10-hexahydro-4-hydroxy-2-oxo-2H-cycloocta[b]pyran-3-yl)methyl]phenyl]-4-fluorobenzenesulfonamide and 4-cyano-N-[3-[cyclopropyl(5,6,7,8,9,10-hexahydro-4-hydroxy-2-oxo-2H-cycloocta[b]pyran-3-yl)methyl]phenyl]-benzenesulfonamide were tested in known human cell lines, such as human T-cell lines, e.g., MT4 and H9, which were infected with HIV-1IIIB, and certain of these compounds were further tested in peripheral blood mononuclear cells (PBMC), which were infected with HIV-1JRCSF (a clinical isolate).

HIV-1 protease [2] = molecular target: T1, HIV-1 protease; experiment: biochemical
Summary of the method: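 Biotinylated, FITC-labeled peptide substrate (20 μl of 0.2 μM) incubated with HIV-1 protease (10 μl of 0.1 μM) and compound in 0.1 M sodium acetate pH 5.5, 1.0 M NaCl, 0.05% NP-40, 1 h, room temperature, dark. Streptavidin beads then capture uncleaved substrate; filtered labeled product read by fluorescence, giving percent inhibition.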

## N#Cc1ccc(S(=O)(=O)Nc2cccc(C(c3c(O)c4c(oc3=O)CCCCCC4)C3CC3)c2)cc1 (centres unmarked) [Example 262, 4-Cyano-N-[3-[cyclopropyl(5,6,7,8,9,10-hexahydro-4-hydroxy-2-oxo-2H-cycloocta[b]pyran-3-yl)methyl]phenyl]-benzenesulfonamide]
HIV-1 protease [1]
  Ki: 1.4 nM and 0.44 nM and 1.01 nM and 0.6 nM
HIV-1IIIB
  inhibition of retroviral replication: found to inhibit retrovital replication
HIV-1 protease [2]; dose 0.123 uM
  HIV-1 Protease % Inhib: 83.32%
HIV-1 protease [2]; dose 3.300 uM
  HIV-1 Protease % Inhib: 121.87%
HIV-1 protease [2]; dose 10.000 uM
  HIV-1 Protease % Inhib: 119.5%
HIV-1 protease [2]; read-out: HIV-1 Protease % Inhib, dose 0.370 uM
  inhibition at 0.37 µM: 103%
HIV-1 protease [2]; read-out: HIV-1 Protease % Inhib, dose 1.100 uM
  inhibition at 1.1 µM: 113%
HIV-1 protease [2]; read-out: HIV-1 Protease % Inhib, dose 30.000 uM
  inhibition at 30 µM: 115%
